Data set [1] relates to ADP-induced platelet aggregation in monkey PRP. The data set is described as follows: Ex vivo platelet aggregation inhibition test in monkeys. Further details: species or system cynomolgus monkeys (Macaca fascicularis). The settings on record: for inhibition at 0.3 mg/kg / inhibition at 1 mg/kg: Macaca fascicularis, Platelet, read-out: Inhibition percentage of platelet aggregation in monkeys; for inhibition at 0.3 mg/kg: oral 0.3 mg/kg; for inhibition at 1 mg/kg: oral 1 mg/kg. How it is done: Ex Vivo Platelet Aggregation Inhibition Test in Monkeys
The compound of Example 84 was orally administered to two cynomolgus monkeys (Macaca fascicularis, male, aged 3 to 5) at a dose of 0.3 or 1 mg/kg. Before the administration or 2, 4 and 8 hours after the administration, blood (each 4.5 ml) was collected using an injection cylinder containing aqueous 3.8% citric acid solution in the amount of 1/10 of the volume of blood to be collected. Blood containing citric acid solution was centrifuged at 200×g for 10 minutes and the upper layer was collected as PRP. Furthermore, the residual blood was centrifuged at 1500×g for 10 minutes and the supernatant was collected as PPP. 190 μl of PRP was added to a cuvette and incubated at 37° C. for one minute, and then 10 μl of ADP solution (5 to 30 μM) was added to induce platelet aggregation. The percentage of platelet aggregation was measured by an aggregometer (PM8C, Mebanix, Tokyo) using PPP as the blank and inhibition percentage of platelet aggregation was determined by comparing the percentage of aggregation before administration of the compound with the percentage of aggregation after administration of the compound according to the following equation. Inhibition percentage of Platelet Aggregation (%)=100−(The percentage of Aggregation after administration of compound)/(The percentage of Aggregation before administration of compound)×100

The values that follow come from US7205302B2, “Heterocyclic compound derivatives and medicines” (Nippon Shinyaku Co., Ltd., priority 2001, dated 2007).

Like-named read-outs stand apart in the source and are kept apart here.

Usually melting point stands for the temperature of the solid-liquid transition. Broadly, the inhibition is the relative decrease from the control value, in per cent.

With `CC(C)N(CCCC[S+]([O-])CC(=O)O)c1cnc(-c2ccccc2)c(-c2ccccc2)n1` (stereo not shown) [Example 79, 2-{4-[N-(5,6-diphenylpyrazin-2-yl)-N-isopropylamino]butylsulfinyl}acetic acid], the melting point was 117 to 120 °C (dec.).
`CN(CCCCCCCCC(=O)O)c1cnc(-c2ccccc2)c(-c2ccccc2)n1` [Example 67, 9-[N-(5,6-diphenylpyrazin-2-yl)-N-methylamino]nonanoic acid] registered a melting point of 103 to 105 °C.
On to `CC(C)N(CCCCOCC(=O)NS(C)(=O)=O)c1cnc(-c2ccccc2)c(-c2ccccc2)n1` [Example 84, 2-{4-[N-(5,6-diphenylpyrazin-2-yl)-N-isopropylamino]butyloxy}-N-(methylsulfonyl)acetamide], for which the inhibition at 0.3 mg/kg in data set [1] (2 h after administration) was 28%; in data set [1] (4 h after administration) it was 34%; in data set [1] (8 h after administration), 19%. Moreover, the inhibition at 1 mg/kg in data set [1] (2 h after administration) was 63%; in data set [1] (4 h after administration), 40%; in data set [1] (8 h after administration), 52%. Besides, the “ex vivo platelet aggregation inhibition (in words)” value in data set [1] (oral 0.3 or 1 mg/kg, 2 to 8 hours after administration) was “inhibits platelet aggregation persistently in a dose-dependent manner”.
`CN(CCCCCCCC(=O)O)c1cnc(-c2ccccc2)c(-c2ccccc2)n1` [Example 66, 8-[N-(5,6-diphenylpyrazin-2-yl)-N-methylamino]octanoic acid] came in with a melting point of 116 to 117 °C.
Still for that read-out and setting: with `COc1ccc(-c2ncc(N(C)CCCCOCC(=O)O)nc2-c2ccc(OC)cc2)cc1` [Example 51, 2-[4-{N-[5,6-bis(4-methoxyphenyl)pyrazin-2-yl]-N-methylamino}butyloxy]acetic acid] the figure was 128 to 130 °C; with `O=C(O)COCCC1CCCN(c2cnc(-c3ccccc3)c(-c3ccccc3)n2)C1` (racemic) [Example 58, (±)-2-{2-[1-(5,6-diphenylpyrazin-2-yl)piperidin-3-yl]ethoxy}acetic acid], 139 to 140 °C; with `O=C(O)COCCCCN(c1cnc(-c2ccccc2)c(-c2ccccc2)n1)C1CCCCC1` [Example 44, 2-{4-[N-(5,6-diphenylpyrazin-2-yl)-N-cyclohexylamino]butyloxy}acetic acid], 130 to 131 °C.
On the same count and under the same terms, to `O=C(O)COCCCC1CCCN1c1cnc(-c2ccccc2)c(-c2ccccc2)n1` (racemic) [Example 55, (±)-2-{3-[1-(5,6-diphenylpyrazin-2-yl)pyrrolidin-2-yl]propyloxy}acetic acid] belongs 137 to 139 °C; to `CN(CCc1cccc(OCC(=O)O)c1)c1cnc(-c2ccccc2)c(-c2ccccc2)n1` [Example 61, 2-[3-{2-[N-(5,6-diphenylpyrazin-2-yl)-N-methylamino]ethyl}phenoxy]acetic acid], 174 to 176 °C.
`Cc1ccc(-c2ncc(N(CCCCOCC(=O)O)C(C)C)nc2-c2ccc(C)cc2)cc1` [Example 45, 2-{4-[N-(5,6-di-p-tolylpyrazin-2-yl)-N-isopropylamino]butyloxy}acetic acid] had a melting point of 155 to 156 °C.
As to `CN(CCCCCCC(=O)O)c1cnc(-c2ccccc2)c(-c2ccccc2)n1` [Example 65, 7-[N-(5,6-diphenylpyrazin-2-yl)-N-methylamino]heptanoic acid], the melting point fell in the range of 114 to 118 °C.
The same measure, in the same setting: with `CN(CCCCOCC(=O)O)c1cnc(-c2ccc(F)cc2)c(-c2ccc(F)cc2)n1` [Example 52, 2-[4-{N-[5,6-bis(4-fluorophenyl)pyrazin-2-yl]-N-methylamino}butyloxy]acetic acid] the figure was 116 to 118 °C.
As for `CC(C)N(CCCCOCC(=O)O)c1nnc(-c2ccccc2)c(-c2ccccc2)n1` [Example 49, 2-{4-[N-(5,6-diphenyl-1,2,4-triazin-3-yl)-N-isopropylamino]butyloxy}acetic acid], the melting point lay in the range of 128 to 130 °C.
The compound `O=C(O)COCCC1CCN(c2cnc(-c3ccccc3)c(-c3ccccc3)n2)CC1` [Example 54, 2-{2-[1-(5,6-diphenylpyrazin-2-yl)piperidin-4-yl]ethoxy}acetic acid] returned a melting point of 173 to 174 °C.
Compound `CN(CCCCOCC(=O)O)c1nnc(-c2ccccc2)c(-c2ccccc2)n1` [Example 56, 2-{4-[N-(5,6-diphenyl-1,2,4-triazin-3-yl)-N-methylamino]butyloxy}acetic acid] displayed a melting point of 108 to 110 °C.
Still for that read-out and setting: to `CN(C[C@H](O)c1cccc(OCC(=O)O)c1)c1cnc(-c2ccccc2)c(-c2ccccc2)n1` [Example 59, (R)-(+)-2-[3-{2-[N-(5,6-diphenylpyrazin-2-yl)-N-methylamino]-1-hydroxyethyl}phenoxy]acetic acid] belongs 158 to 159 °C; to `CN(CCCCCC(=O)O)c1cnc(-c2ccccc2)c(-c2ccccc2)n1` [Example 68, 6-[N-(5,6-diphenylpyrazin-2-yl)-N-methylamino]hexanoic acid], 159 to 160 °C; to `CN(c1cnc(-c2ccccc2)c(-c2ccccc2)n1)C1CCc2c(OCC(=O)O)cccc21` (stereo not shown) [Example 62, 4-(carboxymethoxy)-1-[N-(5,6-diphenylpyrazin-2-yl)-N-methylamino]indane], 182 to 184 °C.
`O=C(O)COCCCCS(=O)(=O)c1cnc(-c2ccccc2)c(-c2ccccc2)n1` [Example 82, 2-[4-(5,6-diphenylpyrazin-2-sulfonyl)butyloxy]acetic acid] gave a melting point of 123 to 125 °C.
Consider `CN(C/C=C/COCC(=O)O)c1cnc(-c2ccccc2)c(-c2ccccc2)n1` [Example 72, 2-{4-[N-(5,6-diphenylpyrazin-2-yl)-N-methylamino]-(E)-2-buten-1-yloxy]acetic acid], for which the melting point was in the range of 128 to 130 °C.
Still for that read-out and setting: with `CN(CC1CCc2c(cccc2OCC(=O)O)C1)c1cnc(-c2ccccc2)c(-c2ccccc2)n1` (stereo not shown) [Example 77, 5-(carboxymethoxy)-2-{[N-(5,6-diphenylpyrazin-2-yl)-N-methylamino]methyl}-1,2,3,4-tetrahydronaphthalene] the figure was 212 to 213 °C; with `O=C(O)COCCCCC1CCCN1c1cnc(-c2ccccc2)c(-c2ccccc2)n1` (racemic) [Example 57, (±)-2-{4-[1-(5,6-diphenylpyrazin-2-yl)pyrrolidin-2-yl]butyloxy}acetic acid], 138 to 140 °C; with `CC(C)N(CCCCS(=O)(=O)CC(=O)O)c1cnc(-c2ccccc2)c(-c2ccccc2)n1` [Example 80, 2-{4-[N-(5,6-diphenylpyrazin-2-yl)-N-isopropylamino]butylsulfonyl}acetic acid], 183 to 185 °C.
`O=C(O)COCCCCSc1cnc(-c2ccccc2)c(-c2ccccc2)n1` [Example 76, 2-{4-[(5,6-diphenylpyrazin-2-yl)thio]butyloxy}acetic acid] came in with a melting point of 86 to 88 °C.
The same measure, in the same setting: with `CC(C)N(CCCCOCC(=O)O)c1nc(-c2ccccc2)c(-c2ccccc2)nc1Cl` [Example 47, 2-{4-[N-(3-chloro-5,6-diphenylpyrazin-2-yl)-N-isopropylamino]butyloxy}acetic acid] the figure was 136 to 138 °C; with `Cc1ccc(-c2ncc(N(C)CCCCOCC(=O)O)nc2-c2ccc(C)cc2)cc1` [Example 50, 2-{4-[N-(5,6-di-p-tolylpyrazin-2-yl)-N-methylamino]butyloxy}acetic acid], 161 to 162 °C.
`O=C(O)COCCCCN(c1cnc(-c2ccccc2)c(-c2ccccc2)n1)C1CCCC1` [Example 43, 2-{4-[N-(5,6-diphenylpyrazin-2-yl)-N-cyclopentylamino]butyloxy}acetic acid] showed a melting point of 101 to 103 °C.
On the same count and under the same terms, with `CN(C/C=C\COCC(=O)O)c1cnc(-c2ccccc2)c(-c2ccccc2)n1` [Example 71, 2-{4-[N-(5,6-diphenylpyrazin-2-yl)-N-methylamino]-(Z)-2-buten-1-yloxy]acetic acid] the figure was 148 to 150 °C.
